According to paper PMC9140920 (International Journal of Molecular Sciences, 2022):
“Also recorded” adds a separate entry of the source.

Columns and labels:
[1] = test system: TM4 cells; assay: Annexin V-FITC / propidium iodide assay of apoptosis and necrosis; type: cell-based, mouse; conditions: 48 h, annexin V/PI, vs vCTR
Method: Cells were maintained in standard conditions for 24 h before treatments. […] All azoles were dissolved in DMSO. In an effort to avoid a possible experimental artifact with vehicles, experiments were performed including control groups in which the effect of the drug vehicle alone was tested (vehicle control, vCTR). In these experimental conditions, we excluded any negative effects of DMSO that is biocompatible with no biological effect per se. For experiments with N-acetylcysteine (NAC), 24 h after seeding cells were pre-treated for 1 h with the ROS inhibitor (1 mM) and then maintained in co-treatment with azoles for 48 h.
Treated and control cells (vCTR) (1 × 10^6) were collected; after washing in ice-cold PBS, samples were resuspended in 1 mL of binding buffer (10 mM HEPES, 140 mM NaCl, and 2.5 mM CaCl2, at pH 7.4) containing 10 µg/mL Annexin V-FITC and 1 µg/mL PI. After staining (1 h incubation at room temperature), cells were then washed and subsequently analysed using an FACS Calibur instrument (BD Instruments Inc., San José, CA, USA). Cells treated with 25 µM Etoposide (Eto) for 24 h were used as a positive control for apoptosis induction. Data from 10,000 events per sample were collected and analysed using an FACS Calibur instrument (BD Instruments Inc., San José, CA, USA ) equipped with cell cycle analysis software (Modfit LT for Mac V3.0) in order to calculate the percentages of apoptotic and necrotic cells.

[2] = test system: ROS production in TM4 cells; assay: Intracellular ROS detection (DCFH-DA fluorescence); type: cell-based, mouse; conditions: 3 h of incubation, vs vCTR
Method: The intracellular ROS production was detected by using 2′,7′-dichlorofluorescein diacetate (DCFH-DA) (Molecular Probes, Eugene, OR, USA), as previously reported. In brief, after 30 min and 3 h of treatments, samples were incubated with 1 µM DCFH-DA at 37 °C for 30 min. Subsequently, cells were collected and twice washed in ice-cold PBS; samples were then analysed using flow cytometry to detect the presence of intracellular ROS at the wavelengths of 502 and 524 nm, for the excitation and the emission, respectively; the fluorescence intensity was detected with a Perkin Elmer LS-50B spectrofluorometer. Cells treated with 500 µM tert-butyl hydroperoxide (t-BHP) for 1.5 h were used as a positive control for ROS generation.

CCCN(CCOc1c(Cl)cc(Cl)cc1Cl)C(=O)n1ccnc1 [PCZ, prochloraz]
apoptosis induction / cell death [1]: no significant differences; also recorded: not able to induce cell death | increase in ROS production [2]: ~ 1.7 fold
